Here are results for eight compounds from patent publication US20260062387A1, “SALT-INDUCIBLE KINASE INHIBITOR COMPOUND AND PHARMACEUTICAL COMPOSITION INCLUDING THE SAME” (MITSUBISHI TANABE PHARMA CORPORATION, priority 2023, published 2026).

Common to all, as to type: biochemical
For test [1], the target named is GST-tagged SIK1 (Homo sapiens (Human), UniProt P57059). The experiment in a line: SIK1 inhibition test (ADP-Glo Max Assay). The conditions noted are these: enzyme 20 nM, AMARA Peptide 200 μM, ATP 1 mM, 2 hours room temperature. In short, it runs like this: (§1)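 GST-tagged human SIK1, SIK2 and SIK3 at 20 nM, 3 nM and 100 nM final in Tris pH 7.5 buffer, with AMARA peptide (200 μM for SIK1/SIK2, 100 μM for SIK3), 1 mM ATP and 5 mM MgCl2. Reaction ran 2 h at room temperature. ADP read by ADP-Glo Max luminescence, and IC50 fitted from 16 concentrations.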
Chain of GST-tagged SIK1 (P57059 whole entry): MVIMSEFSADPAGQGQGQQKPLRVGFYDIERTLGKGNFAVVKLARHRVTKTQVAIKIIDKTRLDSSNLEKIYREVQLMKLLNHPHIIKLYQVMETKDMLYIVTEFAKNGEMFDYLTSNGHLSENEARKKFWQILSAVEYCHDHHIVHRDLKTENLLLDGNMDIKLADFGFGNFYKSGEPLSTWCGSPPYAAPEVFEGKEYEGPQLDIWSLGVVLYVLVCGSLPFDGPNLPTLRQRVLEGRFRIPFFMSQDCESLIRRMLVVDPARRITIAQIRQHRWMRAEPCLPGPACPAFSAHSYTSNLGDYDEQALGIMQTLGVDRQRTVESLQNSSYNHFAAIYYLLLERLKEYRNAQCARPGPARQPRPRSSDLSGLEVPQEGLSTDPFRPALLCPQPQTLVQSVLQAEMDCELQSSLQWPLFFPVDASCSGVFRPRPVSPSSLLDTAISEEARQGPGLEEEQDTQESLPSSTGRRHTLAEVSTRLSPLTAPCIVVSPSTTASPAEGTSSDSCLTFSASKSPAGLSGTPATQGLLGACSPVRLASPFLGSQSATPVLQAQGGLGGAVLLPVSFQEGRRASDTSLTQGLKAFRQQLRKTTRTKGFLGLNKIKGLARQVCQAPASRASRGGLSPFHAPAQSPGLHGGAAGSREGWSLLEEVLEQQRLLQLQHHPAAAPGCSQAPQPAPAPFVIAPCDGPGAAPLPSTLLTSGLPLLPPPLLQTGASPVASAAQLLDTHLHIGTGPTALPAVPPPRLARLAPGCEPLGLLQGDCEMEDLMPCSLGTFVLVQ
(ADP-Glo turns the ADP formed in a reaction into a luminescent signal.)

Test [2] deals with GST-tagged SIK2 (Homo sapiens (Human), UniProt Q9H0K1). The experiment in a line: SIK2 inhibition test (ADP-Glo Max Assay). As to conditions: enzyme 3 nM, AMARA Peptide 200 μM, ATP 1 mM, 2 hours room temperature. In short, it runs like this:
as §1

The target in test [3] is GST-tagged SIK3 (Homo sapiens (Human), UniProt Q9Y2K2). The experiment in a line: SIK3 inhibition test (ADP-Glo Max Assay). The conditions noted are these: enzyme 100 nM, AMARA Peptide 100 μM, ATP 1 mM, 2 hours room temperature. The essentials:
as §1

Chain of GST-tagged SIK2 (Q9H0K1 whole entry): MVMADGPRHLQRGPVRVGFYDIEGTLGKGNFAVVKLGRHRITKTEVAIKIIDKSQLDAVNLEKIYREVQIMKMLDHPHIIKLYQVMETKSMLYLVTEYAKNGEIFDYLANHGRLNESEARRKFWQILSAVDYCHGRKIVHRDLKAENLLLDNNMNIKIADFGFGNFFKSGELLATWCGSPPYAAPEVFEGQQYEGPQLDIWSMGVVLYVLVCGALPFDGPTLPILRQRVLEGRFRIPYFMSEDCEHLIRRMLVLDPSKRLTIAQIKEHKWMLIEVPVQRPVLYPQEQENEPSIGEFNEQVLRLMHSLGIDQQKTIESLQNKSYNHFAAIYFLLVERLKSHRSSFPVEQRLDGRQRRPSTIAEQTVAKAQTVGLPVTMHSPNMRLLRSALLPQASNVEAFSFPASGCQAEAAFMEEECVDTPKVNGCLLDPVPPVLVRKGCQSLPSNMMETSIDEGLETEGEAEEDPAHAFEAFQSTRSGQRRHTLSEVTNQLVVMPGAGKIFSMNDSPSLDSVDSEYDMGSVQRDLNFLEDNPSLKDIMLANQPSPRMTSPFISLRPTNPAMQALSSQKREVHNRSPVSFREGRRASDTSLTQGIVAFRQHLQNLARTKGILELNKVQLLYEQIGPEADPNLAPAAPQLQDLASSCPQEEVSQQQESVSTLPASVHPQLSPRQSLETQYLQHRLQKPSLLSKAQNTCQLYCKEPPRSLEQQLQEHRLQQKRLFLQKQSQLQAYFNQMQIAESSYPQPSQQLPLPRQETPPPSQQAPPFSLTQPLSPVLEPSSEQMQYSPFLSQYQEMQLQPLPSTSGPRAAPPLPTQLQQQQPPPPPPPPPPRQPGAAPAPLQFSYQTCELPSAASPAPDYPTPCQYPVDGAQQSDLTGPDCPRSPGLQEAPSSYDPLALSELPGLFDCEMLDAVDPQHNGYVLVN
Chain of GST-tagged SIK3 (Q9Y2K2 whole entry): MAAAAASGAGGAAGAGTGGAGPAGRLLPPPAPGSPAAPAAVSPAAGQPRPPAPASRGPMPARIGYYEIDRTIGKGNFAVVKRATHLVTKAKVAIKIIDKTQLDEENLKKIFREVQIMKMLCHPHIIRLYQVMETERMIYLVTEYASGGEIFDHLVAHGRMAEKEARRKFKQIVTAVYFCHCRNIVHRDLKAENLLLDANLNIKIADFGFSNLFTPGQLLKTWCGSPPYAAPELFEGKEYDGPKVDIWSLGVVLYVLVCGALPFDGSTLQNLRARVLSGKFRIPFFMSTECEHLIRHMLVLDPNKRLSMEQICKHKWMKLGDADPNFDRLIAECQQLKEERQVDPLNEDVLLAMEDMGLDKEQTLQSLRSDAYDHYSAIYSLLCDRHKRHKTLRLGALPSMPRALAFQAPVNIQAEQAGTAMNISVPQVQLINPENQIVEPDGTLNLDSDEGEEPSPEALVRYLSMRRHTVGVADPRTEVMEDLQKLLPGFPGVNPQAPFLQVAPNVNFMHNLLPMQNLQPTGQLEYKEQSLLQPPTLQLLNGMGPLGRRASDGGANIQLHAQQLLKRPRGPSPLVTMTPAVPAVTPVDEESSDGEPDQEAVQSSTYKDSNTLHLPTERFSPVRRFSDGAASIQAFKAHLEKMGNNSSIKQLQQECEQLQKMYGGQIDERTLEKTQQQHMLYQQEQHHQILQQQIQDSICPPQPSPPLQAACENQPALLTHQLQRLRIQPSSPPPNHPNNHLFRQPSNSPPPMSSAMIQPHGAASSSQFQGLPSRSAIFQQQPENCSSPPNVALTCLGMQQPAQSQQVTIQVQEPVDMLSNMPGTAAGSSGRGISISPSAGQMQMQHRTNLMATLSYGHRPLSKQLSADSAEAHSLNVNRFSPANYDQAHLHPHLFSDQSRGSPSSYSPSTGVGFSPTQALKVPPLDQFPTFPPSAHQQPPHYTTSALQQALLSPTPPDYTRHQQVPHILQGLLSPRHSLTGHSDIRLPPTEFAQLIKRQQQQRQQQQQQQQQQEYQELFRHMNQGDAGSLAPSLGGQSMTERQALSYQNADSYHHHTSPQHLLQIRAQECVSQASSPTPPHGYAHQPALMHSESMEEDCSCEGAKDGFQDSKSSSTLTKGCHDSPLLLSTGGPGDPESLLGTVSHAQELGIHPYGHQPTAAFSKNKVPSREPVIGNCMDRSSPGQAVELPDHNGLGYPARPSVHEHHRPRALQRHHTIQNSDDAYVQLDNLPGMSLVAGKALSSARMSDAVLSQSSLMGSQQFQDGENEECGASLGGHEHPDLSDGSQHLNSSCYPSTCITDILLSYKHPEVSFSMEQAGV

Turning to `COc1cc(-c2c3c(C(F)F)cc(-c4cnn(CC(=O)N(C)C)c4)cc3nn2C)cc(OC(F)F)c1C(=O)N1CC(O)(C(F)F)C1` [Example 61, 2-[4-[3-[3-(difluoromethoxy)-4-[3-(difluoromethyl)-3-hydroxyazetidin-1-carbonyl]-5-methoxyphenyl]-4-(difluoromethyl)-2-methylindazol-6-yl]pyrazol-1-yl]-N,N-dimethylacetamide], the results for the half-maximal inhibitory concentration (IC50) in test [1], in test [2] and in test [3] were 4.7 nM, 7.4 nM and 7.4 nM, respectively.

As for `COc1cc(-c2c3c(OC(F)F)cc(-c4cn(C)nn4)cc3nn2C)cc(OC(F)F)c1C(=O)N1CC(O)(C(F)F)C1` [Example 63, [2-(difluoromethoxy)-4-[4-(difluoromethoxy)-2-methyl-6-(1-methyltriazol-4-yl)indazol-3-yl]-6-methoxyphenyl]-[3-(difluoromethyl)-3-hydroxyazetidin-1-yl]methanone], the IC50 (in general, the midpoint of a concentration-inhibition curve) in test [1] is 7.5 nM; in test [2], 4.3 nM; in test [3], 9.7 nM.

On to `COc1cc(-c2c3c(C(F)F)cc(-c4cnn(CCS(C)(=O)=O)c4)cc3nn2C)cc(OC(F)F)c1C(=O)N1CC(O)(C(F)F)C1` [Example 66, [2-(difluoromethoxy)-4-[4-(difluoromethyl)-2-methyl-6-[1-(2-methylsulfonylethyl)pyrazol-4-yl)indazol-3-yl]-6-methoxyphenyl]-[3-(difluoromethyl)-3-hydroxyazetidin-1-yl]methanone], for which the 50% inhibitory concentration (IC50) in test [1] amounted to 11.4 nM; in test [2] it was 14.1 nM; in test [3], 5.7 nM.

Turning to `COc1cc(-c2c3c(C(F)F)cc(-c4cnn(C[C@H](C)O)c4)cc3nn2C)cc(OC(F)F)c1C(=O)N1CC(O)(C(F)F)C1` [Example 67, [2-(difluoromethoxy)-4-[4-(difluoromethyl)-6-[1-[(2S)-2-hydroxypropyl]pyrazol-4-yl]-2-methylindazol-3-yl]-6-methoxyphenyl]-[3-(difluoromethyl)-3-hydroxyazetidin-1-yl]methanone], the IC50 came to 8.5 nM in test [1], 12.7 nM in test [2] and 4.8 nM in test [3].

Turning to `COc1cc(-c2c3c(C(F)F)cc(-c4cn[nH]c4)cc3nn2C)cc(OC(F)F)c1C(=O)N1CC(O)(C(F)(F)F)C1` [Example 68, [2-(difluoromethoxy)-4-[4-(difluoromethyl)-2-methyl-6-(1H-pyrazol-4-yl)indazol-3-yl]-6-methoxyphenyl]-[3-hydroxy-3-(trifluoromethyl)azetidin-1-yl]methanone], the IC50 in test [1] is 9.4 nM; in test [2] it was 14.2 nM; in test [3], 2.5 nM.

For `COc1cc(-c2c3c(C(F)F)cc(-c4cn[nH]c4)cc3nn2C)cc(OC(F)F)c1C(=O)N1CC(O)(C(F)F)C1` [Example 69, [2-(difluoromethoxy)-4-[4-(difluoromethyl)-2-methyl-6-(1H-pyrazol-4-yl)indazol-3-yl]-6-methoxyphenyl]-[3-(difluoromethyl)-3-hydroxyazetidin-1-yl]methanone], the half-inhibitory concentration (IC50) in test [1] worked out at 8.3 nM; in test [2], 10.9 nM; in test [3], 2 nM.

As for `COc1cc(-c2c3c(C#N)cc(-c4cn[nH]c4)cc3nn2C)cc(OC(F)F)c1C(=O)N1CC(O)(C(F)(F)F)C1` [Example 70, 3-[3-(difluoromethoxy)-4-[3-hydroxy-3-(trifluoromethyl)azetidin-1-carbonyl]-5-methoxyphenyl]-2-methyl-6-(1H-pyrazol-4-yl)indazole-4-carbonitrile], the values for the IC50 in test [1], in test [2] and in test [3] were 15.3 nM, 11.2 nM and 3.7 nM, respectively.

On to `COc1cc(-c2c3c(C#N)cc(-c4cnn(C)c4)cc3nn2C)cc(OC(F)F)c1C(N)=O` [Example 73, 4-[4-cyano-2-methyl-6-(1-methylpyrazol-4-yl)indazol-3-yl]-2-(difluoromethoxy)-6-methoxybenzamide], for which the half-maximal inhibitory concentration (IC50) worked out at 17.4 nM in test [1], 3.8 nM in test [2] and 6.5 nM in test [3].
